The subject of assay [1] is Ephestia kuehniella (50 eggs). The note with it: in vivo.
Assay [2] deals with Tribolium castaneum 30 live beetles and brood. The settings on record: in vivo.
The test system of assay [3] is Sitophilus granarius (broodmixture). The note with it: in vivo.
Assay [4] deals with Sitophilus granarius, Ephestia kuehniella eggs, Tribolium castaneum and brood. The settings on record: in vivo.
The next assay deals with insect eggs. The settings on record: in vivo; cited from earlier work.

Structures are written as SMILES. Several values for one entry are separate records, joined by “and”; a condition that tells them apart may be missing. Equal values may be shown once. Where a name gives a salt, the structure may show the parent alone.

The text below walks through data of US6921545B2 (priority 2001, dated 2005).

For `O=S(=O)(F)F` [SO2F2, sulfuryl fluoride], the “Offspr. (offspring in the fumigation test)” value in assay [1] is 0; in assay [2], 3 beetles and 4 beetles and 5 beetles; in assay [3], 0 beetles. For the same molecule, the offspring produced result in assay [4] is “offspring were produced”. Turning to `CC#N` [acetonitrile], the “minimum concentration for achieving an ovicidal action” value (“minimum concentration” for short) with insect eggs is on record as 10 g/m^3. For the molecule `O=C=S` [carbonyl sulfide], the “minimum concentration” value with insect eggs is given as 5 g/m^3. `COC=O` [methyl formate]: the “minimum concentration” value in the assay with insect eggs is given as 20 g/m^3. Turning to `CN=C=S` [methyl isothiocyanate], the “minimum concentration” value in the assay on insect eggs is on record as 5 g/m^3.
